Earlier results, collected in US7304085B2, “Nitrogen-containing heteroaryl derivatives” (Genelabs Technologies, Inc., priority 2003, dated 2007).

Experiments:
HCV = conditions: treatment of HCV, long term efficacy

Compound | patients with significant hemolysis (currently recommended doses) | teratogenicity / embryotoxicity (in vivo) | response rate (HCV)
NC(=O)c1ncn([C@@H]2O[C@H](CO)[C@@H](O)[C@H]2O)n1 [Ribavirin, 1-β-D-ribofuranosyl-1H-1,2,4-triazole-3-carboxamide] | 10-20% | teratogenic and embryotoxic | 
interferon |  |  | about 25%
